From patent US11807644B2 (PMV Pharmaceuticals, Inc., priority 2020, dated 2023) come the findings set out here.

The first test addresses T1, recombinant His-tag Y220C p53 DBD protein (Homo sapiens, UniProt P04637, Y220C).
T1 construct: recombinant His-tag Y220C p53 DBD protein (amino acids #˜94-312)
As to the kind of experiment: In vitro DNA binding activity assay (TR-FRET): binding of His-tag Y220C p53 DBD to biotin-labeled consensus DNA. It counts as biochemical. The following applies: SC150 = concentration to increase DNA binding by […], His-tag Y220C p53 DBD, biotin-labeled consensus DNA. In general terms: TR-FRET usually uses a lanthanide donor and a delayed reading to cut background.
Consider `CC(O)Cn1ccc(C(=O)NCc2nc(-c3cc4c(N[C@@H]5CCN(C)C[C@@H]5F)cccc4n3CC(F)(F)F)no2)c1` (stereo partly drawn) [Compound 244B, N-{[3-(4-{[(3S,4R)-3-fluoro-1-methylpiperidin-4-yl]amino}-1-(2,2,2-trifluoroethyl)-1H-indol-2-yl)-1,2,4-oxadiazol-5-yl]methyl}-1-(2-hydroxypropyl)-1H-pyrrole-3-carboxamide], for which the “Y220C SC150 (μM)” value is reported as “* (* = 0 μM ≤ SC150 < 0.1 μM)”.

As for `CN1CCC(Nc2cccc3c2cc(-c2nnc(CNC(=O)c4ccn(C)c4)s2)n3CC(F)(F)F)CC1` [Compound 77B, 1-methyl-N-[(5-{4-[(1-methylpiperidin-4-yl)amino]-1-(2,2,2-trifluoroethyl)-1H-indol-2-yl}-1,3,4-thiadiazol-2-yl)methyl]-1H-pyrrole-3-carboxamide], the “Y220C SC150 (μM)” value is reported as “* (* = 0 μM ≤ SC150 < 0.1 μM)”. Regarding `CN1CC[C@@H](F)[C@@H](Nc2cccc3c2cc(-c2noc(CNC(=O)c4ccn(C(C)(C)C)c4)n2)n3CC(F)(F)F)C1` [Compound 415B, 1-tert-butyl-N-{[3-(4-{[(3S,4R)-4-fluoro-1-methylpiperidin-3-yl]amino}-1-(2,2,2-trifluoroethyl)-1H-indol-2-yl)-1,2,4-oxadiazol-5-yl]methyl}-1H-pyrrole-3-carboxamide], the “Y220C SC150 (μM)” value is reported as “* (* = 0 μM ≤ SC150 < 0.1 μM)”.

`CN1CC[C@@H](Nc2cccc3c2cc(-c2cc(CNC(=O)c4csc(C(C)(C)O)c4)on2)n3CC(F)(F)F)[C@@H](F)C1` [Compound 555B, N-{[3-(4-{[(3S,4R)-3-fluoro-1-methylpiperidin-4-yl]amino}-1-(2,2,2-trifluoroethyl)-1H-indol-2-yl)-1,2-oxazol-5-yl]methyl}-5-(2-hydroxypropan-2-yl)thiophene-3-carboxamide]: the “Y220C SC150 (μM)” value is “* (* = 0 μM ≤ SC150 < 0.1 μM)”.

On to `COCC(C)(C)n1ccc(C(=O)NCc2nc(-c3cc4c(N[C@@H]5CCN(C)C[C@@H]5F)cccc4n3CC(F)(F)F)no2)n1` [Compound 547B, N-{[3-(4-{[(3S,4R)-3-fluoro-1-methylpiperidin-4-yl]amino}-1-(2,2,2-trifluoroethyl)-1H-indol-2-yl)-1,2,4-oxadiazol-5-yl]methyl}-1-(1-methoxy-2-methylpropan-2-yl)-1H-pyrazole-3-carboxamide], for which the “Y220C SC150 (μM)” value is given as “* (* = 0 μM ≤ SC150 < 0.1 μM)”.

`CC(C)n1cncc1C(=O)NCc1nc(-c2cc3c(N[C@@H]4CCN(C)C[C@@H]4F)cccc3n2CC(F)(F)F)no1` [Compound 257B, N-{[3-(4-{[(3S,4R)-3-fluoro-1-methylpiperidin-4-yl]amino}-1-(2,2,2-trifluoroethyl)-1H-indol-2-yl)-1,2,4-oxadiazol-5-yl]methyl}-1-(propan-2-yl)-1H-imidazole-5-carboxamide]: the “Y220C SC150 (μM)” value is listed as “* (* = 0 μM ≤ SC150 < 0.1 μM)”. On the same count and under the same terms, to `CN1CC[C@H](Nc2cccc3c2cc(-c2nnc(CNC(=O)C4CC4)s2)n3CC(F)(F)F)[C@H](F)C1` [Compound 25B, N-{[5-(4-{[(3R,4S)-3-fluoro-1-methylpiperidin-4-yl]amino}-1-(2,2,2-trifluoroethyl)-1H-indol-2-yl)-1,3,4-thiadiazol-2-yl]methyl}cyclopropanecarboxamide] belongs “** (** = 0.1 μM ≤ SC150 < 0.5 μM)”. The same measure, in the same setting: for `CN1CC[C@@H](Nc2cccc3c2cc(-c2noc(CNC(=O)c4csc(Cl)c4)n2)n3CC(F)(F)F)[C@@H](F)C1` [Compound 213B, 5-chloro-N-{[3-(4-{[(3S,4R)-3-fluoro-1-methylpiperidin-4-yl]amino}-1-(2,2,2-trifluoroethyl)-1H-indol-2-yl)-1,2,4-oxadiazol-5-yl]methyl}thiophene-3-carboxamide] the value was “* (* = 0 μM ≤ SC150 < 0.1 μM)”.

As for `CC(C)C(=O)NCc1nnc(-c2cc3c(NC4CCN(C)CC4)cccc3n2CC(F)(F)F)s1` [Compound 57B, 2-methyl-N-[(5-{4-[(1-methylpiperidin-4-yl)amino]-1-(2,2,2-trifluoroethyl)-1H-indol-2-yl}-1,3,4-thiadiazol-2-yl)methyl]propanamide], the “Y220C SC150 (μM)” value is reported as “** (** = 0.1 μM ≤ SC150 < 0.5 μM)”. Still for that read-out and setting: for `COc1ccc(NCc2nc(-c3cc4c(N[C@@H]5CCN(C)C[C@@H]5F)cccc4n3CC(F)(F)F)no2)nc1` [Compound 378B, N-[(3S,4R)-3-fluoro-1-methylpiperidin-4-yl]-2-(5-{[(5-methoxypyridin-2-yl)amino]methyl}-1,2,4-oxadiazol-3-yl)-1-(2,2,2-trifluoroethyl)-1H-indol-4-amine] the value was “* (* = 0 μM ≤ SC150 < 0.1 μM)”; for `CN1CCC(Nc2cccc3c2cc(-c2nnc(CNC(=O)c4cccc(F)c4)s2)n3CC(F)(F)F)CC1` [Compound 51B, 3-fluoro-N-[(5-{4-[(1-methylpiperidin-4-yl)amino]-1-(2,2,2-trifluoroethyl)-1H-indol-2-yl}-1,3,4-thiadiazol-2-yl)methyl]benzamide], “* (* = 0 μM ≤ SC150 < 0.1 μM)”; for `CC(C)(C)n1cc(C(=O)NCc2nc(-c3cc4c(N[C@H]5CCOC[C@H]5F)cccc4n3CC(F)(F)F)no2)cn1` [Compound 498B, 1-tert-butyl-N-{[3-(4-{[(3S,4S)-3-fluorooxan-4-yl]amino}-1-(2,2,2-trifluoroethyl)-1H-indol-2-yl)-1,2,4-oxadiazol-5-yl]methyl}-1H-pyrazole-4-carboxamide], “* (* = 0 μM ≤ SC150 < 0.1 μM)”. Take `CN1CC[C@@H](Nc2cccc3c2cc(-c2ncc(CN)s2)n3CC(F)(F)F)[C@@H](F)C1` (racemic) [Compound 96B, (+/−)-2-[5-(aminomethyl)-1,3-thiazol-2-yl]-N-[(3R,4S)-3-fluoro-1-methylpiperidin-4-yl]-1-(2,2,2-trifluoroethyl)-1H-indol-4-amine]: the “Y220C SC150 (μM)” value is on record as “**** (**** = 1 μM ≤ SC150 < 10 μM)”. Turning to `COCC1(c2ccc(C(=O)NCc3nc(-c4cc5c(N[C@@H]6CCNC[C@@H]6F)cccc5n4CC(F)(F)F)no3)s2)CC1` [Compound 503B, N-{[3-(4-{[(3S,4R)-3-fluoropiperidin-4-yl]amino}-1-(2,2,2-trifluoroethyl)-1H-indol-2-yl)-1,2,4-oxadiazol-5-yl]methyl)-5-[1-(methoxymethyl)cyclopropyl]thiophene-2-carboxamide], the “Y220C SC150 (μM)” value was “* (* = 0 μM ≤ SC150 < 0.1 μM)”.

The test is the same for the next values; noted with them: concentration to increase DNA binding by […], incubated at either 27° C. or 29° C. for 60 min.
For `CS(=O)(=O)c1ccc(NC(=O)NCc2ccc(-c3cc4c(NC5CCS(=O)(=O)CC5)cccc4n3CC(F)(F)F)cc2)cc1` [Compound 28A, 1-[(4-{4-[(1,1-dioxo-1λ^6-thian-4-yl)amino]-1-(2,2,2-trifluoroethyl)-1H-indol-2-yl}phenyl)methyl]-3-(4-methanesulfonylphenyl)urea], the “SC150 (μM)” value is “+ (+ = 0 μM ≤ SC150 < 2 μM)”.

Take `N#Cc1cccc(-c2cc3c(NC4CCS(=O)(=O)CC4)cccc3n2CC(F)(F)F)c1` [Compound 10A, 3-{4-[(1,1-dioxo-1λ^6-thian-4-yl)amino]-1-(2,2,2-trifluoroethyl)-1H-indol-2-yl}benzonitrile]: the “SC150 (μM)” value is on record as “++++ (++++ = 10 μM ≤ SC150 < 35 μM)”. On the same count and under the same terms, to `NCc1ccc(-c2cc3c(NC4CCS(=O)(=O)CC4)cccc3n2CC(F)(F)F)cc1` [Compound 2A, 4-({2-[4-(aminomethyl)phenyl]-1-(2,2,2-trifluoroethyl)-1H-indol-4-yl}amino)-1λ^6-thiane-1,1-dione] belongs “+++ (+++ = 5 μM ≤ SC150 < 10 μM)”.
